From ChEMBL document CHEMBL3525908, “Chronic doxorubicin cardiotoxicity modulates cardiac cytochrome P450-mediated arachidonic acid metabolism in rats” (Drug Metab Dispos, 2012)

Experiments:
[1] = tested on: EPHX2; test: Cardiotoxicity in Sprague-Dawley rat assessed as increase in EPHX2 gene expression level administered as cumulative dose of 15 mg/kg, ip divided into 6 injections for 2 weeks followed by compound washout period of 14 days by RT-PCR analysis relative to control; type: toxicity, organism-based; parameters: dose 15 mg/kg, route intraperitoneal; conditions: heart
[2] = tested on: Rattus norvegicus; test: Toxicity in Sprague-Dawley rat assessed as CYP4F1 gene expression in kidney administered as cumulative dose of 15 mg/kg, ip divided into 6 injections for 2 weeks followed by compound washout period of 14 days by RT-PCR analysis relative to control; type: organism-based; parameters: dose 15 mg/kg, route intraperitoneal; conditions: in vivo, 336 h
[3] = tested on: Rattus norvegicus; test: Cardiotoxicity in Sprague-Dawley rat assessed as increase in CYP4F4 gene expression level administered as cumulative dose of 15 mg/kg, ip divided into 6 injections for 2 weeks followed by compound washout period of 14 days by RT-PCR analysis relative to control; type: toxicity, organism-based; parameters: dose 15 mg/kg, route intraperitoneal; conditions: in vivo, 336 h
[4] = tested on: CYP4A3; test: Cardiotoxicity in Sprague-Dawley rat assessed as increase in CYP4A3 gene expression level administered as cumulative dose of 15 mg/kg, ip divided into 6 injections for 2 weeks followed by compound washout period of 14 days by RT-PCR analysis relative to control; type: toxicity, organism-based; parameters: dose 15 mg/kg, route intraperitoneal; conditions: heart
[5] = tested on: Rattus norvegicus; test: Toxicity in Sprague-Dawley rat assessed as CYP4A3 gene expression in kidney administered as cumulative dose of 15 mg/kg, ip divided into 6 injections for 2 weeks followed by compound washout period of 14 days by RT-PCR analysis relative to control; type: organism-based; parameters: dose 15 mg/kg, route intraperitoneal; conditions: in vivo, 336 h
[6] = tested on: Rattus norvegicus; test: Cardiotoxicity in Sprague-Dawley rat assessed as increase in CYP1A1 gene expression level administered as cumulative dose of 15 mg/kg, ip divided into 6 injections for 2 weeks followed by compound washout period of 14 days by RT-PCR analysis relative to control; type: toxicity, organism-based; parameters: dose 15 mg/kg, route intraperitoneal; conditions: in vivo, 336 h
[7] = tested on: Rattus norvegicus; test: Toxicity in Sprague-Dawley rat assessed as CYP2E1 gene expression in kidney administered as cumulative dose of 15 mg/kg, ip divided into 6 injections for 2 weeks followed by compound washout period of 14 days by RT-PCR analysis relative to control; type: organism-based; parameters: dose 15 mg/kg, route intraperitoneal; conditions: in vivo, 336 h
[8] = tested on: Rattus norvegicus; test: Cardiotoxicity in Sprague-Dawley rat assessed as increase in CYP4A1 gene expression level administered as cumulative dose of 15 mg/kg, ip divided into 6 injections for 2 weeks followed by compound washout period of 14 days by RT-PCR analysis relative to control; type: toxicity, organism-based; parameters: dose 15 mg/kg, route intraperitoneal; conditions: in vivo, 336 h
[9] = tested on: Rattus norvegicus; test: Cardiotoxicity in Sprague-Dawley rat assessed as increase in IL-6 gene expression level administered as cumulative dose of 15 mg/kg, ip divided into 6 injections for 2 weeks followed by compound washout period of 14 days by RT-PCR analysis relative to control; type: toxicity, organism-based; parameters: dose 15 mg/kg, route intraperitoneal; conditions: in vivo, 336 h
[10] = tested on: H9c2; test: Cytotoxicity against rat H9c2 cells assessed as reduction in BNP mRNA expression at 1 uM after 6 hrs in presence of HET0016; type: cell-based; conditions: h9c2, 6 h
[11] = tested on: Rattus norvegicus; test: Toxicity in Sprague-Dawley rat assessed as sEH gene expression in kidney administered as cumulative dose of 15 mg/kg, ip divided into 6 injections for 2 weeks followed by compound washout period of 14 days by RT-PCR analysis; type: organism-based; parameters: dose 15 mg/kg, route intraperitoneal; conditions: in vivo, 336 h
[12] = tested on: Rattus norvegicus; test: Cardiotoxicity in Sprague-Dawley rat assessed as increase in CYP2C11 gene expression level administered as cumulative dose of 15 mg/kg, ip divided into 6 injections for 2 weeks followed by compound washout period of 14 days by RT-PCR analysis relative to control; type: toxicity, organism-based; parameters: dose 15 mg/kg, route intraperitoneal; conditions: in vivo, 336 h
[13] = tested on: Rattus norvegicus; test: Toxicity in Sprague-Dawley rat assessed as CYP1A2 gene expression in kidney administered as cumulative dose of 15 mg/kg, ip divided into 6 injections for 2 weeks followed by compound washout period of 14 days by RT-PCR analysis relative to control; type: organism-based; parameters: dose 15 mg/kg, route intraperitoneal; conditions: in vivo, 336 h

With `COc1cccc2c1C(=O)c1c(O)c3c(c(O)c1C2=O)C[C@@](O)(C(=O)CO)C[C@@H]3O[C@H]1C[C@H](N)[C@H](O)[C@H](C)O1` [DOXORUBICIN] the fold induction at 336 h [1] was 1.9, the Activity [2] was “Non-toxic” and the Activity [3] was “Non-toxic”. The fold induction at 336 h [4] was 2, the Activity [5] was “Non-toxic” and the Activity [6] was “Non-toxic”. The Activity [7] was “Non-toxic”, the Activity [8] was “Non-toxic” and the Ratio [9] was 1.8. For the same compound, the Activity [10] was “Toxic”, the Activity [11] was “Non-toxic” and the Activity [12] was “Non-toxic”. For the same compound, the Activity [13] was “Non-toxic”.
